In PubChem BioAssay (NCI):
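Following 48 hours of exposure in 96-well plates, responses at five concentrations were used to interpolate endpoints linearly. GI50 marks 50% less growth. Definition used: TGI = concentration required for complete inhibition of growth.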

What was measured:
Assay in all cases: NCI tumour cell line growth inhibition, 48 h; in the data active = GI50 below about 0.43 µM; inactive = the rest
[1] = system: MALME-3M melanoma
[2] = system: BT-549 breast
[3] = system: EKVX NSCLC
[4] = system: SK-MEL-28 melanoma
[5] = system: OVCAR-5 ovarian
[6] = system: SK-MEL-5 melanoma
[7] = system: HOP-92 NSCLC
[8] = system: SN12C renal
[9] = system: HL-60(TB) leukemia
[10] = system: 786-0 renal
[11] = system: SNB-19 CNS
[12] = system: SW-620 colon
[13] = system: SF-539 CNS
[14] = system: RPMI-8226 leukemia
[15] = system: TK-10 renal
[16] = system: CCRF-CEM leukemia
[17] = system: OVCAR-3 ovarian
[18] = system: HOP-62 NSCLC
[19] = system: NCI-H23 lung
[20] = system: SF-295 CNS
[21] = system: HS 578T breast
[22] = system: SK-OV-3 ovarian
[23] = system: CAKI-1 renal
[24] = system: ACHN renal
[25] = system: HCT-15 colon
[26] = system: NCI-H460 lung
[27] = system: NCI-H522 lung
[28] = system: MCF7 breast
[29] = system: OVCAR-4 ovarian
[30] = system: LOX IMVI melanoma
[31] = system: KM12 colon
[32] = system: SK-MEL-2 melanoma
[33] = system: COLO 205 colon
[34] = system: UACC-257 melanoma
[35] = system: UO-31 renal
[36] = system: NCI/ADR-RES ovarian
[37] = system: T-47D breast
[38] = system: RXF 393 renal
[39] = system: UACC-62 melanoma
[40] = system: NCI-H226 lung
[41] = system: MDA-MB-435
[42] = system: SF-268 CNS
[43] = system: A498 renal
[44] = system: MOLT-4 leukemia
[45] = system: HCT-116 colon
[46] = system: MDA-MB-231 breast
[47] = system: HT29 colon
[48] = system: A549 NSCLC
[49] = system: M14 melanoma
[50] = system: SNB-75 CNS
[51] = system: HCC-2998 colon
[52] = system: OVCAR-8 ovarian
[53] = system: PC-3 prostate
[54] = system: DU-145 prostate
[55] = system: U251 CNS
[56] = system: IGROV1 ovarian
[57] = system: K-562 leukemia
[58] = system: SR leukemia

COc1cc2c(/C=C3/C(=O)Nc4cccc(Cl)c43)c(Cl)n(Cc3ccccc3)c2cc1C
55.6 µM: TGI [45]
9.03 µM: TGI [43]
> 78.8 µM: TGI [34]
8.99 µM: TGI [51]
11.5 µM: TGI [6]
17.9 µM: TGI [31]
43.7 µM: TGI [4]
> 100 µM: TGI [7] | TGI [9] | TGI [11] | TGI [12] | TGI [13] | TGI [16] | TGI [29] | TGI [35] | TGI [37] | TGI [44] | TGI [47] | TGI [48] | TGI [50] | TGI [54] | TGI [56] | TGI [57]
12 µM: TGI [36]
> 76.2 µM: TGI [15]
> 74.8 µM: TGI [22]
41.4 µM: TGI [1]
> 71.5 µM: TGI [42]
> 56.3 µM: TGI [26]
31.3 µM: TGI [25]
> 26.4 µM: TGI [3]
> 45.3 µM: TGI [28]
66.5 µM: TGI [21]
21.8 µM: TGI [33]
21.2 µM: TGI [20]
> 23.6 µM: TGI [14]
5.82 µM: TGI [41]
29.1 µM: TGI [2]
> 38 µM: TGI [53]
inactive: GI50 [1] 14.2 µM | GI50 [2] 6.98 µM | GI50 [3] 6.84 µM | GI50 [4] 4.98 µM | GI50 [5] 24.4 µM | GI50 [6] 2.17 µM | GI50 [7] 44.9 µM | GI50 [8] 6.18 µM | GI50 [9] 5.22 µM | GI50 [10] 3.59 µM | GI50 [11] 9.07 µM | GI50 [12] 6.11 µM | GI50 [13] 3.78 µM | GI50 [14] 4.21 µM | GI50 [15] 10.4 µM | GI50 [16] 4.83 µM | GI50 [17] 8.84 µM | GI50 [18] 9.73 µM | GI50 [19] 4.59 µM | GI50 [20] 2.11 µM | GI50 [21] 4.34 µM | GI50 [22] 7.24 µM | GI50 [23] 2.46 µM | GI50 [24] 3.58 µM | GI50 [25] 3.12 µM | GI50 [26] 5.46 µM | GI50 [27] 4.46 µM | GI50 [28] 3.88 µM | GI50 [29] 7.73 µM | GI50 [30] 4.42 µM | GI50 [31] 2.46 µM | GI50 [32] 11 µM | GI50 [33] 2.94 µM | GI50 [34] 10.4 µM | GI50 [35] 5.69 µM | GI50 [36] 2.76 µM | GI50 [37] 14 µM | GI50 [38] 5.05 µM | GI50 [39] 1.67 µM | GI50 [40] 1.78 µM | GI50 [41] 1.11 µM | GI50 [42] 13.1 µM | GI50 [43] 0.528 µM | GI50 [44] 3.7 µM | GI50 [45] 4.19 µM | GI50 [46] 3.38 µM | GI50 [47] 4.99 µM | GI50 [48] 4.76 µM | GI50 [49] 4.79 µM | GI50 [50] 21.1 µM | GI50 [51] 3.1 µM | GI50 [52] 5.21 µM | GI50 [53] 4.29 µM | GI50 [54] 11.2 µM | GI50 [55] 2.46 µM | GI50 [56] 7.42 µM | GI50 [57] 5.22 µM
20.6 µM: TGI [55]
> 35 µM: TGI [8]
24.4 µM: TGI [46]
> 71.9 µM: TGI [52]
> 82.2 µM: TGI [27]
> 40.5 µM: TGI [49]
53.9 µM: TGI [18]
15 µM: TGI [19]
24.1 µM: TGI [39]
23.7 µM: TGI [30]
33.3 µM: TGI [24]
26.7 µM: TGI [10]
68.2 µM: TGI [32]
> 71.4 µM: TGI [5]
31.4 µM: TGI [23]
25.2 µM: TGI [17]
11.1 µM: TGI [40]
> 29 µM: TGI [38]

Cc1cc(C)cc(Nc2cc(C)nc3nc(C(F)(F)F)nn23)c1
97.9 µM: TGI [7]
> 100 µM: TGI [1] | TGI [2] | TGI [4] | TGI [5] | TGI [6] | TGI [8] | TGI [9] | TGI [10] | TGI [11] | TGI [12] | TGI [13] | TGI [14] | TGI [15] | TGI [17] | TGI [18] | TGI [19] | TGI [20] | TGI [58] | TGI [21] | TGI [22] | TGI [23] | TGI [24] | TGI [25] | TGI [26] | TGI [28] | TGI [29] | TGI [30] | TGI [31] | TGI [32] | TGI [33] | TGI [35] | TGI [36] | TGI [37] | TGI [38] | TGI [39] | TGI [40] | TGI [41] | TGI [42] | TGI [43] | TGI [44] | TGI [45] | TGI [46] | TGI [47] | TGI [49] | TGI [50] | TGI [51] | TGI [52] | TGI [53] | TGI [54] | TGI [55] | TGI [56]
inactive: GI50 [1] > 100 µM | GI50 [2] 39.6 µM | GI50 [4] > 100 µM | GI50 [5] > 100 µM | GI50 [6] > 100 µM | GI50 [7] 26.2 µM | GI50 [8] > 100 µM | GI50 [9] > 100 µM | GI50 [10] 37.6 µM | GI50 [11] > 100 µM | GI50 [12] > 100 µM | GI50 [13] 38.9 µM | GI50 [14] > 100 µM | GI50 [15] > 100 µM | GI50 [17] > 100 µM | GI50 [18] 44 µM | GI50 [19] > 100 µM | GI50 [20] 32.3 µM | GI50 [58] > 100 µM | GI50 [21] 34.9 µM | GI50 [22] 81.5 µM | GI50 [23] > 100 µM | GI50 [24] 58.7 µM | GI50 [25] > 100 µM | GI50 [26] > 100 µM | GI50 [28] > 100 µM | GI50 [29] > 100 µM | GI50 [30] > 100 µM | GI50 [31] > 100 µM | GI50 [32] > 100 µM | GI50 [33] > 100 µM | GI50 [35] > 100 µM | GI50 [36] > 100 µM | GI50 [37] > 100 µM | GI50 [38] 24.3 µM | GI50 [39] > 100 µM | GI50 [40] > 100 µM | GI50 [41] > 100 µM | GI50 [42] 44.4 µM | GI50 [43] 29 µM | GI50 [44] > 100 µM | GI50 [45] 85 µM | GI50 [46] > 100 µM | GI50 [47] > 100 µM | GI50 [49] > 100 µM | GI50 [50] 25.2 µM | GI50 [51] > 100 µM | GI50 [52] > 100 µM | GI50 [53] > 100 µM | GI50 [54] > 100 µM | GI50 [55] > 100 µM | GI50 [56] > 100 µM
